In the assay the test system is BDF1 mice, P388 leukemia ip, median survival T/C. Kind of assay: NCI In Vivo Anticancer Drug Screen. Data for tumor model P388 Leukemia (intraperitoneal) in B6D2F1 (BDF1) mice. Conditions: endpoint: median survival time, higher = longer survival. The gist of the method: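 T/C = treated-group survival ÷ vehicle-control survival; tumour transplanted into mice before dosing.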

[1] abbreviates: dose: 100.0 mg/kg/injection, schedule: Q01DX009 (ip), vehicle: saline with Tween-80.
The mark [2] stands for this setting: dose: 200.0 mg/kg/injection, schedule: Q01DX009 (ip), vehicle: saline with Tween-80.
Setting [3] is: dose: 400.0 mg/kg/injection, schedule: Q01DX009 (ip), vehicle: saline with Tween-80.
Setting [4] is: dose: 50.0 mg/kg/injection, schedule: Q01DX009 (ip), vehicle: saline with Tween-80.
Setting [5] is: dose: 12.5 mg/kg/injection, schedule: Q04DX003 (ip), vehicle: saline sonified.
Where [6] appears, read: dose: 100.0 mg/kg/injection, schedule: Q04DX003 (ip), vehicle: saline with Tween-80.
Setting [7] is: dose: 200.0 mg/kg/injection, schedule: Q04DX003 (ip), vehicle: saline with Tween-80.
Setting [8] is: dose: 100.0 mg/kg/injection, schedule: Q01DX009 (ip), vehicle: Klucel (hydroxypropylcellulose) (HPC).
Where [9] appears, read: dose: 200.0 mg/kg/injection, schedule: Q01DX009 (ip), vehicle: Klucel (hydroxypropylcellulose) (HPC).
[10] abbreviates: dose: 400.0 mg/kg/injection, schedule: Q01DX009 (ip), vehicle: Klucel (hydroxypropylcellulose) (HPC).

Our source for the T/C values is PubChem BioAssay AID328 (DTP/NCI, 2004).

Each structure is given as a SMILES string. Values joined by “and” are separate entries in the source; they are usually repeats but may differ in a detail not shown here. Equal entries are not always repeated. Inconclusive results and toxic doses are left out.

For the molecule `CC1OC(OC2C(CO)OC(O[C@H]3CC[C@@]4(C)C(=CC[C@H]5[C@@H]6C[C@@H]7O[C@@]8(CC[C@H](C)CN8)[C@@H](C)[C@@H]7[C@@]6(C)CC[C@@H]54)C3)C(OC3OC(C)C(O)C(O)C3O)C2O)C(O)C(O)C1O` (stereo partly specified), the T/C was 95 % of control and 100 % of control (dose: 2.5 mg/kg/injection, schedule: Q01DX009 (ip), vehicle: water); 109 % of control (dose: 5.0 mg/kg/injection, schedule: Q01DX009 (ip), vehicle: water); 100 % of control and 104 % of control (dose: 10.0 mg/kg/injection, schedule: Q01DX009 (ip), vehicle: water); 95 % of control and 100 % of control (dose: 20.0 mg/kg/injection, schedule: Q01DX009 (ip), vehicle: water).
In the case of `COC1C(OC(=O)c2ccc(C)[nH]2)C(O)C(Oc2ccc3c(O)c(NC(=O)c4c[nH]c(C(=O)Nc5c(O)c6ccc(OC7OC(C)(C)C(OC)C(OC(=O)c8ccc(C)[nH]8)C7O)c(C)c6oc5=O)c4C)c(=O)oc3c2C)OC1(C)C` (stereo unspecified), the T/C under setting [1] was 90 % of control, the T/C under setting [2] was 109 % of control and the T/C under setting [3] was 163 % of control.
For `CCCN(CCC)CC(O)c1cc2cc(C(F)(F)F)cc(C(F)(F)F)c2c2ccccc12` (stereo unspecified), the T/C is 107 % of control under setting [4] and 114 % of control under setting [1].
Take `C=C(C)C1CCC2(C=O)CCC3(C)C(CCC4C5(C)CCC(O)C(C)(C)C5CCC43C)C12` (stereo unspecified): the T/C is 91 % of control (dose: 18.75 mg/kg/injection, schedule: Q01DX009 (ip), vehicle: Klucel (hydroxypropylcellulose) (HPC)); 88 % of control (dose: 37.5 mg/kg/injection, schedule: Q01DX009 (ip), vehicle: Klucel (hydroxypropylcellulose) (HPC)); 95 % of control (dose: 75.0 mg/kg/injection, schedule: Q01DX009 (ip), vehicle: Klucel (hydroxypropylcellulose) (HPC)).
With `CC(C)([NH-])CO.CC(C)([NH-])CO.[Cl][Cd][Cl]`, the T/C by setting is: (dose: 5.0 mg/kg/injection, schedule: Q01DX009 (ip), vehicle: saline) 120 % of control; (dose: 6.25 mg/kg/injection, schedule: Q04DX003 (ip), vehicle: saline sonified) 104 % of control; (dose: 10.0 mg/kg/injection, schedule: Q01DX009 (ip), vehicle: saline) 120 % of control; (dose: 10.0 mg/kg/injection, schedule: Q04DX003 (ip), vehicle: saline) 109 % of control; under setting [5], 108 % of control; (dose: 20.0 mg/kg/injection, schedule: Q04DX003 (ip), vehicle: saline) 95 % of control.
Turning to `CC[CH2][Pb]([CH2]CC)([CH2]CC)[N]1C(=O)c2ccccc2C1=O`, the T/C by setting is: (dose: 3.12 mg/kg/injection, schedule: Q01DX009 (ip), vehicle: Klucel (hydroxypropylcellulose) (HPC)) 108 % of control and 123 % of control; (dose: 6.25 mg/kg/injection, schedule: Q01DX009 (ip), vehicle: Klucel (hydroxypropylcellulose) (HPC)) 110 % of control and 123 % of control; (dose: 12.5 mg/kg/injection, schedule: Q01DX009 (ip), vehicle: Klucel (hydroxypropylcellulose) (HPC)) 123 % of control.
On to `CCC(C)SC1=NC=NC2=NC=NC21` (stereo unspecified), for which the T/C under setting [4] is 100 % of control, the T/C under setting [1] is 96 % of control, the T/C under setting [6] was 91 % of control and the T/C under setting [7] was 100 % of control.
In the case of `CCCCOCN1COCC1(C)C`, the T/C was 100 % of control (dose: 50.0 mg/kg/injection, schedule: Q04DX003 (ip), vehicle: saline) and 105 % of control (dose: 100.0 mg/kg/injection, schedule: Q04DX003 (ip), vehicle: saline).
With `O=[N+]([O-])c1cc2no[n+]([O-])c2cc1N1CCN(c2cc3c(cc2[N+](=O)[O-])no[n+]3[O-])CC1`, the T/C was 97 % of control (dose: 15.0 mg/kg/injection, schedule: Q01DX009 (ip), vehicle: saline with Tween-80); 98 % of control (dose: 30.0 mg/kg/injection, schedule: Q01DX009 (ip), vehicle: saline with Tween-80); 97 % of control (dose: 60.0 mg/kg/injection, schedule: Q01DX009 (ip), vehicle: saline with Tween-80).
Regarding `O=C(O)c1cc2ccccc2c2cc(Br)ccc12`, the T/C under setting [6] was 100 % of control and the T/C under setting [7] is 104 % of control.
Turning to `Cc1ccc(C)c(CCN)c1`, the T/C (dose: 25.0 mg/kg/injection, schedule: Q01DX009 (ip), vehicle: saline with Tween-80) was 122 % of control; the T/C (dose: 25.0 mg/kg/injection, schedule: Q04DX003 (ip), vehicle: saline with Tween-80) is 100 % of control; the T/C under setting [4] was 104 % of control; the T/C (dose: 50.0 mg/kg/injection, schedule: Q04DX003 (ip), vehicle: saline with Tween-80) was 100 % of control; the T/C under setting [6] was 100 % of control.
As to `Nc1nc(N)c(Nc2ccc(Cl)cc2)c(Cl)n1`, the T/C reads like this: (dose: 100.0 mg/kg/injection, schedule: Q01DX001 (ip), vehicle: saline with Tween-80) 88 % of control; (dose: 200.0 mg/kg/injection, schedule: Q01DX001 (ip), vehicle: saline with Tween-80) 89 % of control.
On to `CSc1ncc(CO)c(N)n1`, for which the T/C by setting is: under setting [8], 91 % of control; under setting [9], 95 % of control; under setting [10], 87 % of control.
With `O=C(Nc1ccc(F)cc1)C12CC3CC(CC(C3)C1)C2`, the T/C reads like this: under setting [4], 92 % of control; under setting [1], 92 % of control; under setting [2], 92 % of control.
Turning to `CCCOP(=S)(N1CC1C)N1CC1(C)C` (stereo unspecified), the T/C reads like this: (dose: 33.0 mg/kg/injection, schedule: Q01DX009 (ip), vehicle: saline with Tween-80) 154 % of control; under setting [4], 186 % of control; (dose: 75.0 mg/kg/injection, schedule: Q01DX009 (ip), vehicle: saline with Tween-80) 190 % of control; under setting [6], 159 % of control and 166 % of control; (dose: 150.0 mg/kg/injection, schedule: Q04DX003 (ip), vehicle: saline with Tween-80) 208 % of control; under setting [7], 154 % of control.
On to `Clc1ccccc1-c1nc(-c2ccncc2)no1`, for which the T/C is, setting by setting: under setting [4], 89 % of control; under setting [1], 93 % of control; under setting [2], 100 % of control.
Take `CCN(c1ccc(C=O)cc1)c1ccc([N+](=O)[O-])cc1[N+](=O)[O-]`: the T/C (dose: 50.0 mg/kg/injection, schedule: Q01DX009 (ip), vehicle: Klucel (hydroxypropylcellulose) (HPC)) is 99 % of control; the T/C under setting [8] was 97 % of control; the T/C under setting [9] is 97 % of control.
`C[N+]1=C2CCCCCC2=C(N)CC1`: the T/C is, setting by setting: (dose: 6.25 mg/kg/injection, schedule: Q01DX009 (ip), vehicle: saline) 100 % of control; (dose: 12.5 mg/kg/injection, schedule: Q01DX009 (ip), vehicle: saline) 100 % of control; under setting [5], 91 % of control; (dose: 25.0 mg/kg/injection, schedule: Q01DX009 (ip), vehicle: saline) 100 % of control.
As to `CC(CCC(C)OS(C)(=O)=O)OS(C)(=O)=O` (stereo unspecified), the T/C is, setting by setting: (dose: 2.0 mg/kg/injection, schedule: Q01DX010 (ip), vehicle: saline) 100 % of control; (dose: 4.0 mg/kg/injection, schedule: Q01DX010 (ip), vehicle: saline) 95 % of control; (dose: 8.0 mg/kg/injection, schedule: Q01DX010 (ip), vehicle: saline) 118 % of control; (dose: 16.0 mg/kg/injection, schedule: Q01DX010 (ip), vehicle: saline) 122 % of control.
For the molecule `O=C1CSCC(=O)C1`, the T/C is, setting by setting: (dose: 100.0 mg/kg/injection, schedule: Q04DX002 (ip), vehicle: saline with Tween-80) 94 % of control; (dose: 200.0 mg/kg/injection, schedule: Q04DX002 (ip), vehicle: saline with Tween-80) 96 % of control; (dose: 400.0 mg/kg/injection, schedule: Q04DX002 (ip), vehicle: saline with Tween-80) 96 % of control.
For `CCCCCCCCCCCCCCCC(=O)N(c1ccc(N)cc1)C(C)CCCN(CC)CC` (stereo unspecified), the T/C under setting [1] was 89 % of control; the T/C under setting [6] is 90 % of control; the T/C under setting [2] was 98 % of control; the T/C under setting [7] was 90 % of control; the T/C under setting [3] is 100 % of control; the T/C (dose: 400.0 mg/kg/injection, schedule: Q04DX003 (ip), vehicle: saline with Tween-80) was 90 % of control.
In the case of `CC(=O)c1c(C)c([N+](=O)[O-])c(C(C)(C)C)c([N+](=O)[O-])c1C`, the T/C reads like this: under setting [9], 91 % of control and 100 % of control; under setting [10], 100 % of control and 123 % of control.
